Measurements taken from patent EP0280239A1, “1,4-Dihydropyridine derivatives, production and use thereof” (SANWA KAGAKU KENKYUSHO CO., LTD., priority 1987, dated 1988).

How the values were obtained:
Format in all cases: in vivo
mongrel dogs [1] = assay: Blood flow increasing action (vertebral and femoral arterial blood flow, blood pressure) in anesthetized dogs; conditions: Canis lupus familiaris, iv, read-out: ED50, i.v. (amount required to increase the vertebral arterial blood flow by 50%)
mongrel dogs [2] = assay: as above; conditions: 1µg/kg, i.v., 5 head
Protocol: Pharmacological Test Example 1 (Blood flow increasing action)
An experiment was carried out by anesthetizing adult made and female mongrel dogs (weight; 10 to 20kg) with Nembutal (30mg/kg, i.p.) and artificially respiring (20ml/kg/stroke, 20 strokes/min.) the animals.
Right vertebral and femoral arteries were exposed and each probe of electro-magnetic flow meter was fitted therein to measure vertebral and femoral arterial blood flows. A cannula was inserted into descending aorta from left femoral artery, in order to measure blood pressure by a pressure transducer connected to an amplifier. Each of test compounds dissolved in 50% ethanol solution (1µg/kg, i.v.) was administered from the cannula into cephlic vein.
Further, an amount of the compound required to increase the vertebral arterial blood flow by 50% was checked to obtain results shown in following Table 2, wherein the amount is given as ED₅₀ (µg/kg).

[3] = system: spontaneously hypertensive rats; assay: Blood pressure depressing action in spontaneously hypertensive rats; conditions: male spontaneously hypertensive rats, oral, 3.0 mg/kg, N=6; for systric pressure of median sacral artery, change at 1 hr (%): 1 hr after administration; for systric pressure of median sacral artery, change at 2 hr (%): 2 hr after administration; for systric pressure of median sacral artery, change at 4 hr (%): 4 hr after administration; for systric pressure of median sacral artery, change at 6 hr (%): 6 hr after administration; for systric pressure of median sacral artery, change at 24 hr (%): 24 hr after administration
Text: Pharmacological Test Example 2 (Blood pressure depressing action)

| Structure (SMILES) | ED50 (mongrel dogs [1]) [µg/kg] | Change (%) DBP (Diastolic blood pressure) (mongrel dogs [2]) [%] | Change (%) FABF (Femoral arteial blood flow) (mongrel dogs [2]) [%] | Change (%) VABF (Vertebral arterial blood flow) (mongrel dogs [2]) [%] | systric pressure of median sacral artery, change at 1 hr (%) [3] [%] | systric pressure of median sacral artery, change at 2 hr (%) [3] [%] | systric pressure of median sacral artery, change at 4 hr (%) [3] [%] | systric pressure of median sacral artery, change at 6 hr (%) [3] [%] | systric pressure of median sacral artery, change at 24 hr (%) [3] [%] |
| --- | --- | --- | --- | --- | --- | --- | --- | --- | --- |
| CC1=C(C(=O)OCCN(C)Cc2ccc(Cl)cc2Cl)C(c2cccc([N+](=O)[O-])c2)C(C(=O)OCC2CC2)=C(C)N1 (centres unmarked) [Example 1, 3-Cyclopropylmethyl 5-[2-[N-(2,4-dichlorobenzyl)-N-methylamino]-ethyl]1.4-dihydro-2,6-dimethyl-4-(3-nitrophenyl)-pyridine-3,5-dicarboxylate] | 1.1 | -7 ± 1 | 23 ± 7 | 90 ± 17 | -33.3±6.57 | -35.2±4.12 | -34.0±2.42 | -32.8±2.72 | -13.0±5.94 |
| CC1=C(C(=O)OCCN2Cc3ccc(Cl)cc3C2)C(c2cccc([N+](=O)[O-])c2)C(C(=O)OCC2CC2)=C(C)N1 (centres unmarked) [Example 2, 3-[2-(5-Chloroisoindolin-2-yl)ethyl] 5-cyclopropymethyl 1.4-dihydro-2,6-dimethyl-4-(3-nitrophenyl)-pyridine-3,5-dicarboxylate] | 1.6 | -7 ± 2 | 23 ± 8 | 40 ± 6 | -3.0±1.47 | -9.0±2.82 | -13.2±6.15 | -21.4±3.67 | -14.3±4.09 |
| COC(=O)C1=C(C)NC(C)=C(C(=O)OCCN(C)Cc2ccccc2)C1c1cccc([N+](=O)[O-])c1 (centres unmarked) [Nicardipine, 1,4-dihydro-2,6-dimethyl-4-(3-nitrophenyl)pyridine-3,5-dicarboxylic acid 3-2-(N-benzyl-N-methylamino)ethyl 5-methyl ester, reference compound] | 4.2 | -10 ± 1 | 14 ± 5 | 32 ± 7 | -10.0±2.28 | -5.7±1.61 | -3.0±2.01 | -1.0±1.50 | -4.2±1.88 |
| COC(=O)C1=C(C)NC(C)=C(C(=O)OC)C1c1ccccc1[N+](=O)[O-] [Nifedipine, dimethyl ester of 1,4-dihydro-2,6-dimethyl-4-(2-nitrophenyl)pyridine-3,5-dicarboxylic acid, reference compound] | – | – | – | – | -19.3±4.41 | -10.6±3.14 | -4.3±2.70 | -0.1±1.56 | -1.1±1.06 |
